{"source": "patent EP3019008B1", "about": "“USE OF AN ISOPROPANOL-CONTAINING SOLUTION TO COMBAT CALCIVIRIDAE” (Schülke & Mayr GmbH, priority 2013, dated 2015)", "key": {"murine norovirus [1]": {"system": "murine norovirus", "settings": "highest concentration tested of 60% by volume, non-living surfaces, Magulski et al.; cited from earlier work"}, "RAW cells ATCC TIB-71": {"system": "RAW cells ATCC TIB-71", "assay": "Cytotoxicity control (CD50) of the EN 14476 suspension test", "set-up": "unit not given beside the values", "settings": "reference inactivation, PBS", "experimental": "Virus control: The virus titre for the murine norovirus amounted to 7.50 ± 0.47 TCID50 / 0·1 ml and thus to 8.50 ± 0.47 TCID50 / ml. The demonstrable titre reduction thus amounted to ≥ 4.00 lg^10. […] Reference The reduction factor of 0.7% formaldehyde amounted to 2·33 log^10 inactivation after 30 min exposure time and to 3.17 log^10 after 60 min exposure time."}, "[2]": {"system": "murine norovirus, strain S 99 Berlin", "assay": "Quantitative suspension test of virucidal effect according to EN 14476 (low stressing)", "settings": "for log reduction at 0.7 %: Norwalk virus, read-out: reduction factor; for log10-TCID50 / 0·1 ml after ... min murine norovirus: reference inactivation, PBS", "description": "Method A:Quantitative suspension test of virucidal effect according to EN 14476: Murine norovirus (low stressing)\nMethodology:EN 14476:2005-04/A1:2006-10 and PrEN 14476:2011: Chemical disinfection agents and antiseptics - Quantitative suspension test of virucidal effect for chemical disinfection agents and antiseptics used in human medicine, Test methods and requirements (phase 2, stage 1)\nIn order to achieve the concentration of 97%, 0·1 ml of the virus, 0.2 ml of the 5-fold concentrated stressing substance and 9.7 ml of the product are mixed. After the termination of the exposure time, the effect of the disinfection agent is stopped by dilution (or gel filtration) and a series of dilutions in accordance with the progression 1:10/ 1:100 / 1:1,000 etc. is applied in order to determine the residual virus content. The titration is carried out in the microtitre system on 96-well plates.\nTitration method: • Virus titration on cells as monolayers in 96-well microtitration plates. 0.5ml of product test solution is diluted with 4.5 ml of ice-cold DMEM + 2% FBS to a dilution of 10^-8. 100 µl of each dilution was pipetted into 6 wells of the microtitration plate. Method of terminating the effect of the product and reducing the cytotoxicity: • Gel filtration with MicroSpin columns and dilution to 10^-4 within 10 sec with ice-cold DMEM + 2% FBS\nThe TCID50 was calculated in accordance with the method of Spearman and Kärber. m = xk + d/2−d∑pi [formula] • m = negative logarithm of the titre in relation to the test volume • Xk = logarithm of the smallest dilution stage in which all the test objects react positively • d = logarithm of the dilution factor • pi = observed reaction rate\nRF = log(viruscontrol)−log(testproduct) [formula] KRF = sqrt(((2Sm(control)))^2 + ((2Sm(residualtitre)))^2) [formula] • KRF = 95% confidence interval of the reduction factor • Sm = standard deviation of the logarithmized titre"}, "murine norovirus [3]": {"system": "murine norovirus", "assay": "Modified test EN 1500, hygienic disinfection of the hands of test persons contaminated with virus", "format": "in vivo", "settings": "5 test persons", "experimental": "Method B:: Modified test EN 1500 \"Hygienic disinfection of the hands\"\nThe test is based upon EN 1500 (practical test method for the hygienic disinfection of the hands).\nIn the tests, the hands of test persons are contaminated with 3 ml of murine norovirus, namely both the hands of the test persons of the reference group and the hands of the test persons of the test group. A sample is then taken (1 min) before the disinfection. After that, the test persons of each group disinfect their hands with disinfection agent. The test persons of the reference group disinfect twice with 3 ml of a reference product in each case, the reference product being allowed to act for 30 sec and rubbed in after each disinfection. The test persons of the test group instead disinfect twice with 3 ml of the disinfection agent to be tested. After that, a sample is taken […] (1 min), both in the reference group and in the test group.\nThe test persons of the respective group are then swapped over in a second test."}}, "note": "Like-named read-outs stand apart in the source and are kept apart here."}
{"smiles": "CC(C)O", "note": "[isopropanol]", "values": [{"measurement": "effectiveness compared with ethanol and n-propanol", "setting": "murine norovirus [1]", "value": "three decadic levels below the effectiveness of ethanol and n-propanol"}]}
{"smiles": "C=O", "note": "[Formaldehyde 0·7% (V/V), Formaldehyde]", "values": [{"measurement": "CD50", "setting": "RAW cells ATCC TIB-71", "value": "≤ 3.5"}, {"measurement": "log reduction at 0.7 %", "setting": "[2]; 0.5 h", "value": 2.33}, {"measurement": "log reduction at 0.7 %", "setting": "[2]; 1 h", "value": 3.17}, {"measurement": "log10-TCID50 / 0·1 ml after ... min murine norovirus", "setting": "[2]; residual titre after 5 min", "value": "6.33 ± 0.33", "unit": "log10-TCID50 / 0·1 ml"}, {"measurement": "log10-TCID50 / 0·1 ml after ... min murine norovirus", "setting": "[2]; residual titre after 15 min", "value": "5.67 ± 0.54", "unit": "log10-TCID50 / 0·1 ml"}, {"measurement": "log10-TCID50 / 0·1 ml after ... min murine norovirus", "setting": "[2]; residual titre after 30 min", "value": "5.17 ± 0.56", "unit": "log10-TCID50 / 0·1 ml"}, {"measurement": "log10-TCID50 / 0·1 ml after ... min murine norovirus", "setting": "[2]; residual titre after 60 min", "value": "4.33 ± 0.33", "unit": "log10-TCID50 / 0·1 ml"}]}
{"smiles": "CCO", "note": "[Ethanol 70% w/w, Ethanol]", "values": [{"measurement": "Average after disinfection", "setting": "murine norovirus [3]; 2 x 30 s with 3 ml each", "value": 3.02, "unit": "log TCID50/ml"}, {"measurement": "Average before disinfection", "setting": "murine norovirus [3]; baseline before disinfection", "value": 5.6, "unit": "log TCID50/ml"}, {"measurement": "RF", "setting": "murine norovirus [3]; reduction factor, 2 x 30 s with 3 ml each", "value": 2.58, "unit": "log TCID50/ml"}]}
